Test results: patent US6346532B1, “Amide derivatives or salts thereof” (Yamanouchi Pharmaceutical Co., Ltd., priority 1997, dated 2002)
Counter-ions that a name gives are not always drawn.

| SMILES | melting point |
| --- | --- |
| Cl.O=C(Cc1nccn1Cc1ccc([N+](=O)[O-])cc1)Nc1ccc(CCNC[C@H](O)c2ccccc2)cc1 | 237 to 243 °C |
| Cl.Cl.O=C(Cc1nccn1Cc1ccc(I)cc1)Nc1ccc(CCNC[C@H](O)c2ccccc2)cc1 | 222 to 225 °C |
| Cl.O=C(Cc1ccccn1)Nc1ccc(CCNCC(O)c2ccccc2F)cc1 (stereo not drawn) | 194 to 196 °C |
| Cl.O=C(Cn1cccn1)Nc1ccc(CCNC[C@H](O)c2ccccc2)cc1 | 229 to 232 °C |
| Cl.Cl.Cl.O=C(Cc1nccn1-c1ccc2ccccc2n1)Nc1ccc(CCNC[C@H](O)c2ccccc2)cc1 | 162 to 165 °C |
| Cc1cccnc1CC(=O)Nc1ccc(CCNC[C@H](O)c2ccccc2)cc1.Cl | 216 to 217 °C |
| Cl.O=C(Cc1ccccn1)Nc1ccc(CCNCC(O)c2ccc(F)cc2)cc1 (stereo not drawn) | 223 to 225 °C |
| Cl.O=C(CC1=NNN(Cc2ccc(Cl)c(Cl)c2)N1)Nc1ccc(CCNC[C@H](O)c2ccccc2)cc1 | 232 to 235 °C |
| Cl.Cl.O=C(Cn1cncn1)Nc1ccc(CCNC[C@H](O)c2ccccc2)cc1 | 237 to 240 °C |
| O=C(Nc1ccc(CCNCC(O)c2ccccc2)cc1)c1ccccn1 (stereo not drawn) (as salt: hydrochloride) | 223 to 225 °C |
| Cl.O=C(Cc1n[nH]c(S)n1)Nc1ccc(CCNC[C@H](O)c2ccccc2)cc1 | 210 to 213 °C |
| Cl.Cl.Nc1nc(C(=O)C(=O)Nc2ccc(CCNC[C@H](O)c3ccccc3)cc2)cs1 | 205 to 210 °C (dec.) |
| Cl.O=C(Cc1nnn[nH]1)Nc1ccc(CCNC[C@H](O)c2ccccc2)cc1 | 259 to 261 °C |
| Cl.Cl.O=C(Cc1nccn1Cc1ccc(C(F)(F)F)cc1)Nc1ccc(CCNC[C@H](O)c2ccccc2)cc1 | 197 to 203 °C |
| Cl.O=C(Cc1cccnc1)Nc1ccc(CCNC[C@H](O)c2ccccc2)cc1 | 236 to 238 °C |
| CCOC(=O)Nc1nc(CC(=O)Nc2ccc(CCNC[C@H](O)c3ccccc3)cc2)ns1.Cl | 205 to 208 °C |
| CS(=O)(=O)Nc1nc(CC(=O)Nc2ccc(CCNC[C@H](O)c3ccccc3)cc2)cs1.Cl | 252 to 256 °C |
| Cl.Cl.O=C(Cc1nccn1Cc1ccc(F)cc1)Nc1ccc(CCNC[C@H](O)c2ccccc2)cc1 | 230 to 235 °C |
| Cl.O=C(Cc1cccc(OCc2ccccc2)n1)Nc1ccc(CCNC[C@H](O)c2ccccc2)cc1 [16] | 237 to 238 °C |

| SMILES | melting point |
| --- | --- |
| O=C(Cc1cnccn1)Nc1ccc(CCNCC(O)c2ccccc2)cc1 (stereo not drawn) (as salt: hydrochloride) | 236 to 238 °C |
| Cl.O=C(CC1=NNN(Cc2ccc(F)cc2)N1)Nc1ccc(CCNC[C@H](O)c2ccccc2)cc1 | 233 to 235 °C |
| Cl.Cl.O=C(Cc1csc2nccn12)Nc1ccc(CCNC[C@H](O)c2ccccc2)cc1 | 161 to 162 °C |
| Cl.O=C(Cc1ccccn1)Nc1ccc(CCNC[C@H](O)c2cccc(Cl)c2)cc1 | 221 to 222 °C |
| Cl.Cl.O=C(Cc1cn(Cc2ccccc2)cn1)Nc1ccc(CCNC[C@H](O)c2ccccc2)cc1 | 139 to 141 °C |
| Cl.Cl.O=C(Cc1nccn1Cc1c(F)ccc(F)c1F)Nc1ccc(CCNC[C@H](O)c2ccccc2)cc1 | 213 to 217 °C |
| Cl.Cl.O=C(Nc1ccc(CCNC[C@H](O)c2ccccc2)cc1)Nc1ccccn1 | 132 to 133 °C |
| Cl.Cl.O=C(Cc1nccn1Cc1c(F)c(F)c(F)c(F)c1F)Nc1ccc(CCNC[C@H](O)c2ccccc2)cc1 | 190 to 193 °C |
| Cl.Cl.O=C(Cc1nccn1Cc1cc(F)c(F)c(F)c1)Nc1ccc(CCNC[C@H](O)c2ccccc2)cc1 | 209 to 213 °C |
| Nc1cccc(CC(=O)Nc2ccc(CCNCC(O)c3ccccc3)cc2)n1 (stereo not drawn) (as salt: hydrochloride) | 150 to 152 °C |
| CC(=O)Nc1nc(CC(=O)Nc2ccc(CCNC[C@H](O)c3ccccc3)cc2)cs1.Cl | 242 to 245 °C |
| Cl.O=C(Cc1cccc(OCc2ccccc2)n1)Nc1ccc(CCNC[C@H](O)c2ccccc2)cc1 [60] | 214 to 216 °C |
| Cl.O=C(CCc1ccccn1)Nc1ccc(CCNC[C@H](O)c2ccccc2)cc1 | 202 to 204 °C |
| O=C(Cc1ccccn1)Nc1ccc(CCNCC(O)c2ccccc2)cc1 (stereo not drawn) (as salt: hydrochloride) | 223 to 224 °C |
| Cl.O=C(Cc1nnnn1Cc1ccc(F)cc1)Nc1ccc(CCNC[C@H](O)c2ccccc2)cc1 | 225 to 228 °C |
| Cl.O=C(Cc1cccc(Cl)n1)Nc1ccc(CCNC[C@H](O)c2ccccc2)cc1 | 248 to 251 °C |
| Cl.Cl.O=C(Cc1nccn1-c1ccc2ccccc2c1)Nc1ccc(CCNC[C@H](O)c2ccccc2)cc1 | 208 to 214 °C |
| Cl.Cl.O=C(Cc1nccn1Cc1ccc(Br)cc1)Nc1ccc(CCNC[C@H](O)c2ccccc2)cc1 | 221 to 223 °C |
| Cl.Cl.O=C(Cc1ncc[nH]1)Nc1ccc(CCNC[C@H](O)c2ccccc2)cc1 | 203 to 207 °C |

| SMILES | melting point |
| --- | --- |
| Cl.Cl.O=C(Cc1n[nH]c(SCc2ccccc2)n1)Nc1ccc(CCNC[C@H](O)c2ccccc2)cc1 | 222 to 224 °C |
| Cl.Cl.O=C(Cc1cn(Cc2cccc(Cl)c2)cn1)Nc1ccc(CCNC[C@H](O)c2ccccc2)cc1 | 140 to 143 °C |
| Cl.Cl.O=C(Nc1ccc(CCNC[C@H](O)c2ccccc2)cc1)c1cccnc1 | 263 to 265 °C |
| O=C(Cc1nc2ccccc2[nH]1)Nc1ccc(CCNC[C@H](O)c2ccccc2)cc1 [Example 91, (R)-2-(1H-benzimidazol-2-yl)-4′-[2-[(2-hydroxy-2-phenylethyl)amino]-ethyl]acetanilide] | 158 to 165 °C |
| Cl.O=C(Cc1ccccn1)Nc1ccc(OCCNC[C@H](O)c2ccccc2)cc1 | 225 to 226 °C |
| Cl.O=C(Cc1ccncc1)Nc1ccc(CCNC[C@H](O)c2ccccc2)cc1 | 195 to 198 °C |
| Cc1cnc(CC(=O)Nc2ccc(CCNC[C@H](O)c3ccccc3)cc2)n1Cc1ccc(F)cc1.Cl.Cl | 219 to 223 °C |
| O=C(Cc1nnnn1Cc1ccc(Cl)c(Cl)c1)Nc1ccc(CCNCC(O)c2ccccc2)cc1 (stereo not drawn) (as salt: hydrochloride) | 240 to 242 °C |
| O=C(Cc1nccn1Cc1ccc(Cl)cc1)Nc1ccc(CCNC[C@H](O)c2ccccc2)cc1 (as salt: hydrochloride) [Example 23, (R)-2-[1-(4-Chlorobenzyl)-1H-imidazol-2-yl]-4′-[2-[(2-hydroxy-2-phenylethyl)amino]ethyl]acetanilide dihydrochloride] | 203 to 209 °C |
| Cl.Cl.Nc1nc(CC(=O)Nc2ccc(CCNC[C@H](O)c3ccccc3)cc2)ns1 | 244 to 246 °C |
| Cl.O=C(Cc1ccc2ccccc2n1)Nc1ccc(CCNC[C@H](O)c2ccccc2)cc1 | 234 to 235 °C |
| Cl.Cl.O=C(Cc1cn(Cc2ccccc2Cl)cn1)Nc1ccc(CCNC[C@H](O)c2ccccc2)cc1 | 140 to 143 °C |
| Cc1cn(Cc2ccc(F)cc2)c(CC(=O)Nc2ccc(CCNC[C@H](O)c3ccccc3)cc2)n1.Cl.Cl | 204 to 207 °C |
| Cl.Cl.O=C(Cc1nc[nH]n1)Nc1ccc(CCNC[C@H](O)c2ccccc2)cc1 | 221 to 224 °C |
| Cl.Cl.N=C(N)Nc1nc(CC(=O)Nc2ccc(CCNC[C@H](O)c3ccccc3)cc2)cs1 | > 230 °C (dec.) |
| Cl.O=C(Cc1ccccn1)Nc1ccc(CCNCC(O)c2cccc(F)c2)cc1 (stereo not drawn) | 214 to 215 °C |
| Cl.Cl.O=C(Cc1nc2ccccc2s1)Nc1ccc(CCNC[C@H](O)c2ccccc2)cc1 | 228 to 233 °C (dec.) |
| Cl.Cl.O=C(Cc1nccn1Cc1cccc(I)c1)Nc1ccc(CCNC[C@H](O)c2ccccc2)cc1 | 233 to 234 °C |
| O=C(Cc1ncccn1)Nc1ccc(CCNC[C@H](O)c2ccccc2)cc1 (as salt: hydrochloride) [Example 104, (R)-4′-[2-[(2-hydroxy-2-phenylethyl)amino]ethyl]-2-(2-pyrimidinyl]acetanilide hydrochloride] | 208 to 210 °C |
